Consider 5 compounds from ChEMBL document CHEMBL5370589, “Heterologous Production and Biosynthesis of Threonine-16:0dioic acids with a Hydroxamate Moiety” (J Nat Prod, 2023).

Data set [1] is described as follows: Potency index, ratio of deferoxamine EC50 to compound EC50 for metal chelating activity assessed as compound-[…] complex formation by chrome-azurol S assay.
For another data set, the system named is Bacillus subtilis. Nature of the data set: Antibiotic activity against Bacillus subtilis DSM-10 assessed as reduction in bacterial cell growth at 0.03 to 64 microg/ml. In kind it is functional, organism-based. The settings on record: dose 0.03-64 µg/ml.
A further data set has as its system Micrococcus luteus. Nature of the data set: Antibiotic activity against Micrococcus luteus DSM-20030 assessed as reduction in bacterial cell growth at 0.03 to 64 microg/ml. The settings on record: dose 0.03-64 µg/ml. In kind it is functional, organism-based.
A short description of data set [2]: Metal chelating activity assessed as compound-[…] complex formation by chrome-azurol S assay.
A further data set has as its system Pseudomonas putida. In words: Antibiotic activity against Pseudomonas putida assessed as reduction in bacterial cell growth at 0.03 to 64 microg/ml. The settings on record: dose 0.03-64 µg/ml. In kind it is functional, organism-based.
In a further data set the test system is Escherichia coli. In words: Antibiotic activity against wild-type Escherichia coli BW25113 assessed as reduction in bacterial cell growth at 0.03 to 64 microg/ml. In kind it is functional, organism-based. The settings on record: dose 0.03-64 µg/ml.
The subject of another data set is Erwinia persicina. In words: Antibiotic activity against Erwinia persicina DSM-19328 assessed as reduction in bacterial cell growth at 0.03 to 64 microg/ml. Format: functional, organism-based. The settings on record: dose 0.03-64 µg/ml.
In the next data set the test system is Enterococcus mundtii. Nature of the data set: Antibiotic activity against Enterococcus mundtii DSM-4840 assessed as reduction in bacterial cell growth at 0.03 to 64 microg/ml. The settings on record: dose 0.03-64 µg/ml. Format: functional, organism-based.
A further data set deals with HepG2. In words: Cytotoxicity against human HepG2 cells assessed as reduction in cell viability. Format: toxicity, cell-based.
A further data set concerns Staphylococcus carnosus. In words: Antibiotic activity against Staphylococcus carnosus DSM-20501 assessed as reduction in bacterial cell growth at 0.03 to 64 microg/ml. Format: functional, organism-based. The settings on record: dose 0.03-64 µg/ml.
Another data set relates to Staphylococcus aureus. In words: Antibiotic activity against Staphylococcus aureus Newman assessed as reduction in bacterial cell growth at 0.03 to 64 microg/ml. The settings on record: dose 0.03-64 µg/ml. In kind it is functional, organism-based.
The test system of the next data set is Kocuria rhizophila. In words: Antibiotic activity against Kocuria rhizophila DSM-348 assessed as reduction in bacterial cell growth at 0.03 to 64 microg/ml. In kind it is functional, organism-based. The settings on record: dose 0.03-64 µg/ml.
Data set [3] is described as follows: Metal chelating activity assessed as compound-[…] complex formation at 10 to 100 uM by chrome-azurol S assay. The settings on record: dose 10-100 µM.

The source made the active and inactive calls. No cut-off for these calls is given here.

As usually defined, the EC50 is the concentration giving half of the maximal effect. Consider `C[C@@H](O)[C@H](C(=O)O)N(O)C(=O)CCCCCCCCCCCCCCC(=O)O`, for which the Ratio EC50 in data set [1] is 5. In addition, the result with Bacillus subtilis, in the data set with Micrococcus luteus, in the data set on Pseudomonas putida, in the data set with Escherichia coli, in the data set on Erwinia persicina and with Enterococcus mundtii was inactive. For the same compound, the result in the data set on Staphylococcus carnosus, in the data set with Staphylococcus aureus and with Kocuria rhizophila was inactive. In addition, the EC50 in data set [2] worked out at 58 µM. Further, the Activity entry with HepG2 is reported as “Non-Toxic”.
With `CC(CCCCCCCCCCCCC(=O)N(O)[C@@H](C(=O)O)[C@@H](C)O)C(=O)O` (stereo partly specified), in data set [2], the EC50 turned out to be 75 µM.
As for `CC(=O)N[C@@H](CSC(CCCCCCCCCCCCCC(=O)O)C(=O)N[C@@H](C(=O)O)[C@@H](C)O)C(=O)O` (stereo partly specified), the outcome (in the data set on Bacillus subtilis; with Micrococcus luteus; in the data set on Pseudomonas putida; in the data set with Escherichia coli; in the data set with Erwinia persicina; in data set [3]) was inactive. Besides, the result in the data set on Enterococcus mundtii, in the data set on Staphylococcus carnosus, with Staphylococcus aureus and with Kocuria rhizophila was inactive. In the data set with HepG2, the Activity entry was “Non-Toxic”.
In the case of `CC(=O)N(O)CCCCCNC(=O)CCC(=O)N(O)CCCCCNC(=O)CCC(=O)N(O)CCCCCN` [DEFEROXAMINE], in data set [2], the EC50 is 11 µM.
Still for that read-out and setting: next, `O=C(O)CN(CCN(CC(=O)O)CC(=O)O)CC(=O)O` [EDETIC ACID]: 18 µM.
